Test results published in US10561736B1, “Apoptosis inhibitor formulations for prevention of hearing loss” (Spiral Therapeutics, Inc., priority 2019, dated 2020).

What was measured:
Sprague-Dawley rats = test: functional observation battery, IP injection; assay type: in vivo; conditions: rat
Method: (§1) A functional observation battery was conducted with LPT99 administered via IP (intraperitoneal) injection in Sprague-Dawley rats. The study was preceded by a non-GLP maximum tolerated dose (MTD) toxicity study, via the same administration and test system, which determined the MTD of LTP99 to be 1000 mg/kg. LPT99 was suspended in vehicle [0.5% w/v methylcellulose and 0.1% v/v TWEEN®80 in Milli-Q water] and administered intraperitoneally to Sprague-Dawley rats as a single dose at the doses of 100 (low—G2/G2TK), 300 (mid—G3/G3TK), and 750 (high—G4/G4TK) mg/kg body weight. The rats in vehicle control groups (G1/G1TK) received the vehicle alone. The dose volume administered was at an equivolume of 10 mL/kg body weight for all groups.
LPT99 was suspended in vehicle [0.5% w/v methylcellulose and 0.1% v/v TWEEN® 80 in Milli-Q water] and administered intraperitoneally to Sprague-Dawley rats as a single dose at the doses of 100 (low—G2/G2TK), 300 (mid—G3/G3TK), and 750 (high—G4/G4TK) mg/kg body weight. The rats in vehicle control groups (G1/G1TK) received the vehicle alone. The dose volume administered was at an equivolume of 10 mL/kg body weight for all groups.

[1] = non-GLP maximum tolerated dose (MTD) toxicity study, IP; conditions: rat, in vivo, Sprague-Dawley rats
Method: as §1
A GLP acute systemic toxicity study was conducted with LPT99 administered via IP injection in Sprague-Dawley rats. The acute systemic toxicity study was preceded by a non-GLP maximum tolerated dose (MTD) toxicity study, via the same administration and test system, which determined the MTD of LTP99 to be 1000 mg/kg.

[2] = metabolic profile in hepatic fractions; assay type: in vitro ADME, human, dog, rabbit, rat, and mouse; conditions: phase I biotransformation pathways
Method: The metabolic profile and stability of LPT99 was characterized in human, dog, rabbit, rat, and mouse microsomal and S9 fractions, and in human cytosolic fractions. LPT99 was extensively metabolized (>90% metabolized after 1 hour) in microsomal and S9 hepatic fractions in all tested species. Up to nine (9) metabolites were formed through phase I biotransformation pathways. The most abundant metabolites were identified as single hydroxylation, double hydroxylation, and demethylation plus double hydroxylation. […] In the rabbit S9 fraction, the quantity of detected metabolites was less than in the human S9 fraction.

[3] = system: bacterial reverse mutation; test: GLP in vitro bacterial reverse mutation assay (Ames test); assay type: cell-based
[4] = system: auditory function (ototoxicity); test: non-GLP auditory toxicity after intra-tympanic administration; assay type: in vivo, rat; conditions: for ototoxicity: rat
[5] = metabolic stability in microsomal and S9 hepatic fractions; assay type: in vitro ADME; conditions: after 1 hour
Description: The metabolic profile and stability of LPT99 was characterized in human, dog, rabbit, rat, and mouse microsomal and S9 fractions, and in human cytosolic fractions.

guinea pigs [6] = test: dermal sensitization main study (Buehler test); assay type: in vivo, guinea pig; conditions: topical 797 μM
Method: A GLP-compliant dermal sensitization study was conducted with LPT99 in guinea pigs.
The test article, LPT99, was in a neutral-pH, buffered, isotonic solution containing a thermoreversible compound.
The main study consisted of 2 groups of 20 or 10 guinea pigs. […] Group 2 was 5 male and 5 female animals that were not dosed with LPT99 (Group 2) during the induction phase and served as naïve controls; Group 2 was challenged with LPT99 on Day 28. LPT99 was topically administered to the skin in the shaved scapula area in a volume of 50 μL on Study Days 0, 7, and 14 (induction doses), and on Day 28 (challenge dose). These observations and measurements were performed: Clinical observations (daily), Body weights (weekly), Draize scoring (24 and 48 hours after bandage removal on Days 29 and 30), Primary Dermal Irritation Index (PDII) scoring of extent of irritation according to the scale in. The PDII (post-challenge) was calculated for the test article or vehicle by dividing the sum of the Total Irritation Score by the number of observations (e.g., 3 days×6 animals=18 (number of observations).

[7] = system: noise-induced ABR threshold shift; test: noise trauma ABR threshold study (FIG. 6); assay type: in vivo; conditions: TRAUMA+LPT99 group, 10 and 21 days
guinea pigs [8] = test: dermal sensitization range-finding pilot sub-study; assay type: in vivo, guinea pig; conditions: topical 50 μl, 200, 400, or 797 μM
Method: A GLP-compliant dermal sensitization study was conducted with LPT99 in guinea pigs. The objective was to assess potential dermal sensitization of LPT99 using the Buehler test (Buehler, Arch Dermatol. 1965, 91, 171-7).
The test article, LPT99, was in a neutral-pH, buffered, isotonic solution containing a thermoreversible compound. The vehicle control was buffered at neutral pH and formulated as for the test article; it contained POLOXAMER® 407, disodium phosphate dodecahydrate hydrogen, sodium dihydrogen phosphate dihydrate, sodium chloride, and water for injection.
In the range-finding pilot substudy, 4 guinea pigs (2 males and 2 females; Charles River, Stone Ridge, N.Y.) were dosed.

hERG = biological target: T1, hERG (Homo sapiens, UniProt Q12809); test: hERG automated patch clamp assay in hERG-CHO cells; assay type: cell-based
T1 construct: expressed in transfected cells; host or cells: CHO
T1 sequence (Q12809 whole entry): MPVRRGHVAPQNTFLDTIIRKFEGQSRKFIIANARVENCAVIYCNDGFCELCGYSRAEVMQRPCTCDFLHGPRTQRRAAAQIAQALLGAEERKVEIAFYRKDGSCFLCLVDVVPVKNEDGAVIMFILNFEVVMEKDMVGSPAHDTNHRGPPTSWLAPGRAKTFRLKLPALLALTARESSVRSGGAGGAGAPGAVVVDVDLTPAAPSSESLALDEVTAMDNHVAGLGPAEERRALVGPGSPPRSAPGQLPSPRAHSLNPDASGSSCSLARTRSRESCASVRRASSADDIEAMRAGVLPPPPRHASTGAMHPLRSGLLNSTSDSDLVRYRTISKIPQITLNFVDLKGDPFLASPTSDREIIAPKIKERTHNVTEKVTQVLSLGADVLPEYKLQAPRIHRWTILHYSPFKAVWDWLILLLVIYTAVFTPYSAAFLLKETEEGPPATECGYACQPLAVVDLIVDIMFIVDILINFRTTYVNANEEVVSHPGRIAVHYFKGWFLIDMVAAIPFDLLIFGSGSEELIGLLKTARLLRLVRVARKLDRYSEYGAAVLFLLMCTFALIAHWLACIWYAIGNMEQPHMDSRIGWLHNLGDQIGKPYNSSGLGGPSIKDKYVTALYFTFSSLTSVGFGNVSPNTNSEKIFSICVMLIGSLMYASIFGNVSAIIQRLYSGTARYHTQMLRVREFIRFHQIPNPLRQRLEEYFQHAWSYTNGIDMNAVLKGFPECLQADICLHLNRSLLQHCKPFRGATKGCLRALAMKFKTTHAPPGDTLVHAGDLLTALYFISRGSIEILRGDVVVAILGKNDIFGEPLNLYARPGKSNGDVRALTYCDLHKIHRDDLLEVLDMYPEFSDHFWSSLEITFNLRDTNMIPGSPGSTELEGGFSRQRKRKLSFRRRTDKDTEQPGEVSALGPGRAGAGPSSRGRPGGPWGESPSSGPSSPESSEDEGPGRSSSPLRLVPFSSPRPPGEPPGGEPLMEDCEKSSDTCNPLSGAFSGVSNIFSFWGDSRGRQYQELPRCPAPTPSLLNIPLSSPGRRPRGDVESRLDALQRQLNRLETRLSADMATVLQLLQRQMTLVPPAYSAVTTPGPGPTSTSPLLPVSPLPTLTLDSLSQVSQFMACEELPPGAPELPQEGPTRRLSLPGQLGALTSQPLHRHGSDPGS
Description: The potential cardiotoxicity of LPT99 was investigated in an assay using the hERG-CHO cells transfected with the automated patch clamp assay.

caspase 3 = conditions: cellular model of CisPt-induced apoptosis; IEB Symposium abstracts 2016; cited from earlier work
rats = test: GLP auditory safety study after single IT administration; assay type: in vivo, rat
Method: Gross observations were recorded, and selected organs were weighed.

## COc1ccc2[nH]cc(CCNC(=O)CC3C(=O)N(CCc4ccc(Cl)cc4Cl)CC(=O)N3CCc3cccs3)c2c1 (stereo not shown) [LPT99, 2-(4-(2,4-dichlorophenethyl)-3,6-dioxo-1-(2-(thiophen-2-yl)ethyl)piperazin-2-yl)-N-(2-(5-methoxy-1H-indol-3-yl)ethyl)acetamide]
Sprague-Dawley rats; IP 100 mg/kg, Day 1
  neurological parameters: unaffected
Sprague-Dawley rats; IP 300 and 750 mg/kg, both sexes, day 1, reversible by Day 15
  motor activity scores: lower motor activity scores
[1]
  MTD: 1000 mg/kg
[2]
  number of metabolites formed: ≤ 9
[3]
  genetic toxicity (Ames test): no evidence of genetic toxicity
[4]; IT, in cyclodextrin, 100 or 200 μM, Day 3
  ABR thresholds in response to click or pure tones (8 to 40 kHz), latencies and amplitudes: did not produce a statistically significant increase in the thresholds
[4]; IT, 100 and 478 μM, follow-up experiment
  ototoxicity: no LPT99 ototoxicity
[4]; IT, 200, 400, and 797 μM
  ototoxicity: no ototoxicity
[5]; dog microsomal and S9 hepatic fractions
  metabolized: > 90%
[5]; human microsomal and S9 hepatic fractions
  metabolized: > 90%
[5]; mouse microsomal and S9 hepatic fractions
  metabolized: > 90%
[5]; rabbit microsomal and S9 hepatic fractions
  metabolized: > 90%
[5]; rat microsomal and S9 hepatic fractions
  metabolized: > 90%
Guinea pigs [6]
  Irritant Category: nonirritant (0)
  mortality, clinical observations, body weights, or Draize scores: No test-article-related changes
Guinea pigs [6]; 24 or 48 hours
  Draize scores after the challenge dose: No Draize scores were >0
Guinea pigs [6]; post-challenge
  PDII score: 0
[7]
  noise-induced ABR Threshold shift: back at basal levels
Guinea pigs [8]
  Draize scores (erythema and edema): 0
hERG
  safety margin (hERG IC50 vs plasma detection limit 3.2 nM): > 1063
hERG; hERG-CHO cells, automated patch clamp
  IC50: 3.4 µM
Caspase 3
  caspase-3 activation: reduced caspase-3 activation
rats; rat, 200, 400, or 797 μM, 30 μL per ear
  tolerability of single IT dose: generally well tolerated
rats; rat, IT, 30 μl of 797 μM
  mass of injected LPT99 at the no observed adverse effect level (NOAEL): 15 µg
rats; rat, in vivo
  auditory brainstem response (hearing loss): no reliable evidence of test-article-related hearing loss
  cytocochleogram (hair cell loss): no reliable evidence of test-article-related hair cell loss
  otoscopic examination of the tympanic membranes (erythema, edema, wounds): no statistically significant changes in erythema, edema, or wounds
rats; rat, single bilateral IT 30 μL per ear, 14-day study
  mortalities, clinical abnormalities, body weight, food intake, clinical pathologies: no LPT99- or gentamicin-related mortalities
